Where a SMILES comes first, the peptide text is derived from it. Where no end group is shown, it is not given here.

For experiment [1], the target named is T1, Flag-DOT1L and Myc-CxxC-AF9 interaction (Homo sapiens, UniProt P42568+Q03164).
T1 construct: expressed in transfected cells; host or cells: HEK 293
Kind of experiment: Co-immunoprecipitation in HEK 293 cell lysate. The settings on record: HEK 293 whole cell lysate pre-incubated with peptide. It counts as binding. On the procedure: (§1) To assess whether DOT1L 10-mer peptide can bind and block the interaction between full length DOT1L and MLL-fusion proteins HEK 293 cells were transiently co-transfected ith Flag-tagged human DOT1L protein and Myc-tagged CxxC-AF9 protein. The whole cell lysate was pre-incubated with different concentrations of DOT1L 10-mer peptide and co-immunoprecipitation (co-IP) experiments were performed. […] To further probe and confirm the cellular target for DOT1L 10-mer peptide, a biotinylated DOT1L 10-mer peptide was synthesized. To determine the binding affinity of this labeled peptide FP competitive based assay was used and tested together with corresponding unlabeled DOT1L 10 mer peptide.
Cell Culture, Transfections, and Immunoprecipitation—HEK293 cells were plated in 100 mm culture dishes and cultured in Dulbecco's modified Eagle's medium (DMEM) supplemented with 10% FBS and antibiotics. Co-transfection with FLAG-DOTL and Myc-CxxC-AF9 was performed using Lipofectamine 2000 (Invitrogen). […] After incubation, the beads were washed extensively, boiled in SDS loading buffer and analyzed by western blotting using mouse monoclonal anti-FLAG M2 (Sigma-Aldrich) and goat monoclonal anti-Myc tag (Abcam) antibody.

For experiment [2], the target named is T2, AF9 (Homo sapiens, UniProt P42568).
T2 sequence (P42568 497-568): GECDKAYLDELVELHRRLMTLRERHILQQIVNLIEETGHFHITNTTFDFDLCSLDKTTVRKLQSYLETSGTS
Kind of experiment: Solution competitive SPR assay of peptides, AF9-DOT1L interaction. In kind it is binding. Details: against AF9(497-568) and ENL (489-559) proteins running different tested concentrations over CM5 chip; GB1 (pGB1-LIC vector); made in house; host or cells: Escherichia coli BL21 (DE3). To be noted: read-out: IC50 against AF9 (block PPI DOT1L/AF9). How it is done:
(§2) Solution competitive SPR based assay was performed to determine the IC50 values of DOT1L peptides. […] Response units (RU) were measured at 15 seconds in the dissociation phase and the specific binding was calculated by subtracting the control surface (Fcl) signal from the surfaces with immobilized Mocr-DOT1L. IC50 values were determined by non-linear least squares analysis using Graph Pad Prism 5.0 software.
A general note: SPR reads the build-up and loss of mass on a sensor chip optically.

The target in experiment [3] is T2, AF9. The experiment is described as follows: Optimized competitive FP binding assay (N-Flu-DOT1L / AF9). Details: the recombinant GB1-AF9 protein (residues 497-568); made in house; host or cells: Escherichia coli BL21 (DE3).
Experiment [4] addresses T3, ENL (Homo sapiens, UniProt Q03111).
T3 construct: against AF9(497-568) and ENL (489-559) proteins running different tested concentrations over CM5 chip; MBP (pMSCG9-LIC vector); made in house; host or cells: Escherichia coli BL21 (DE3)
T3 sequence (Q03111 489-559): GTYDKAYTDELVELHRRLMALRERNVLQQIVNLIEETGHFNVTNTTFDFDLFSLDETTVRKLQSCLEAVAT
The experiment is described as follows: Solution competitive SPR assay of peptides, ENL-DOT1L interaction. In kind it is binding. To be noted: read-out: IC50 against ENL (block PPI DOT1L/ENL). How it is done: as §2

Experiment [5] addresses T4, MBP-ENL (489-559) (Homo sapiens, UniProt Q03111).
T4 construct: MBP-ENL (489-559) was dialysed extensively; made in house; host or cells: Escherichia coli BL21 (DE3)
T4 sequence (Q03111 489-559): T3 sequence (Q03111 489-559)
The experiment is described as follows: Isothermal titration calorimetry with MBP-ENL. In kind it is binding. The settings on record: ITC, MBP-tagged ENL, 1:1 stoichiometry; read-out: KD to ENL protein. How it is done:
(§3) Isothermal titration calorimetry—ITC was carried out using a Nano-ITC Micro Calorimeter (TA Instruments) at 20° C. MBP-ENL (489-559) was dialysed extensively against 50 mM Na2HPO4, (pH 7.5) and 100 mM NaCl, and 80 μM was used for titration studies of DOT1L 16-mer and 10-mer peptides, and 110 μM for DOT1L 7-mer titration. Tested peptides dissolved in the same buffer at 400 μM (DOT1L 16-mer and 10-mer) or 500 μM (DOT1L 7-mer) were tested by injecting 2 μl aliquots into the protein sample, at time intervals of […], to ensure that the titration peak returned to the baseline. The ITC data were analyzed by NanoAnalyze software package using a one site-binding model.
Background: In ITC the heat of successive injections is recorded.

Experiment [6] deals with MBP tag (Escherichia coli, UniProt P0AEX9). Kind of experiment: Isothermal titration calorimetry with MBP tag only. In kind it is binding. The settings on record: ITC. How it is done: FIG. 4 describes isothermal titration calorimetry (ITC) of MBP tag only (80 μM) with a solution of DOT1L 16-mer (400 μM). The raw data are shown in the upper panel, and the integrated heat data are shown in the lower panel.
as §3

The test system of experiment [7] is H3K79 methylation. The experiment is described as follows: Global H3K79 methylation in MLL-AF9 transformed cells. It counts as cell-based, mouse. The settings on record: 6 days treatment of MLL-AF9 transformed cells. An excerpt: FIG. 23 presents cell growth curves of A) MLL-AF9 and B) Hoxa9/Meis1 transformed mouse cells and C) adult LSKs after treatment with 38. D) H3K79 methylation after 6 days treatment with 38 and EPZ004777 DOT1L inhibitor (see, e.g., Daigle, et al., Cancer Cell 20, 53-65 (2011)).
This example involves the assessment of cellular effects of compound 38. […] Compound 38 inhibited growth of MLL-AF9 cells in a dose-dependent manner (FIG. 23A), with cell growth inhibition starting after 4 days of treatment. […] The hypothesis predicts that compounds that can block the DOT1L recruitment, but not its catalytic activity, will not affect normal hematopoiesis, as well as the global level of H3K79 methylation. To test this hypothesis, the toxicity of compound 38 was tested on purified LSK (lin-sca-1+ckit+) progenitors from adult wild type mice (FIG. 23C).

Experiment [8] addresses T5, Myc-CxxC-AF9 (Homo sapiens, UniProt P42568+Q03164).
T5 construct: expressed in transfected cells; host or cells: HEK293
Kind of experiment: Streptavidin-biotin pull-down in HEK 293 cell lysate. It counts as binding. The settings on record: HEK 293 cell lysates. How it is done: as §1
Pull-down assay—HEK293 cells transfected with Myc-CxxC-AF9 were lysed in BC-300 lysis buffer in a same way as the immunoprecipitation experiment. The supernatant was pre-cleared for 2 h in streptavidin agarose beads (Thermal Scientific). The pre-cleared lysates were incubated with different concentrations of biotin-labeled DOT1L 10 mer peptide at 4° C. overnight. The next day, the cell lysate were incubated with streptavidin agarose at 4° C. for 2 h. After extensive washing the beads with the BC-300 lysis buffer without NP-40, the pull down samples were applied to SDS-PAGE electrophoresis and pull-down Myc-CxxC-AF9 protein was probed with goat monoclonal anti-Myc tag antibody (Abcam).

T1 sequence (Q03164+P42568 fused): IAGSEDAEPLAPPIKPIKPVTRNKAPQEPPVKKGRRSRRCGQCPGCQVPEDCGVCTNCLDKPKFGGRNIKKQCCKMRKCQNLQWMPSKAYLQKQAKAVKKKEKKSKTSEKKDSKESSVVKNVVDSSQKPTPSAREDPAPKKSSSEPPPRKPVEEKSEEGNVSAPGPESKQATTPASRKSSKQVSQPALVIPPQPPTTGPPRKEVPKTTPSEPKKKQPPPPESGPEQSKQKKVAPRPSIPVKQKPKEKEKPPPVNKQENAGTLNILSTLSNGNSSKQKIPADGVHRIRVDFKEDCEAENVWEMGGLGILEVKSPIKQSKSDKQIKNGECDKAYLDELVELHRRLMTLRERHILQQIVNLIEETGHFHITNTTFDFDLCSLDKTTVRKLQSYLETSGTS
T5 sequence (Q03164+P42568 fused): as above

The Ki is a dissociation constant, usually derived from enzyme kinetics or from competition with a known ligand. The term Kd denotes a measure of binding affinity in units of concentration. Take `CC[C@H](C)[C@H](NC(=O)[C@@H]1CCCN1C(=O)[C@H](CC(C)C)NC(C)=O)C(=O)N[C@@H](CO)C(=O)N[C@H](C(=O)N1CCC[C@H]1C(=O)N[C@@H](CC(C)C)C(=O)N[C@@H](CO)C(=O)N[C@H](C(=O)N[C@H](C(N)=O)C(C)C)[C@@H](C)O)[C@@H](C)CC` [DOT1L 10mer] (Ac-LPISIPLSTV-NH2): in experiment [1], the “disruption of DOT1L / CxxC-AF9 interaction (co-IP)” value is on record as “blocks the interaction of cellular DOT1L with CxxC-AF9 in a dose dependent manner”. Further, the figures for the IC50 in experiment [2] and in experiment [4] were 490 nM and 1340 nM, respectively. For the same molecule, the Ki in experiment [3] worked out at 68 ± 15 nM. Moreover, in experiment [5], the dissociation constant (Kd) came to 1100 nM.

On to `CC[C@H](C)[C@H](NC(=O)[C@@H]1CCCN1C(=O)[C@H](CC(C)C)NC(C)=O)C(=O)N[C@@H](CO)C(=O)N[C@H](C(=O)N1CCC[C@H]1C(=O)N[C@@H](CC(C)C)C(=O)N[C@@H](CO)C(=O)N[C@H](C(=O)N[C@H](C(=O)N[C@@H](CCC(N)=O)C(=O)N1CCC[C@H]1C(=O)N[C@@H](CC(N)=O)C(=O)N[C@@H](CCCCN)C(=O)N[C@@H](CC(C)C)C(=O)N1CCC[C@H]1C(N)=O)C(C)C)[C@@H](C)O)[C@@H](C)CC` [DOT1L 16 mer] (Ac-LPISIPLSTVQPNKLP-NH2), for which the IC50 in experiment [2] amounted to 320 nM; in experiment [4] it was 1560 nM. The Ki in experiment [3] is 80 nM. For the same molecule, in experiment [5], the Kd stood at 900 nM. Further, the “binding to the MBP tag only” value in experiment [6] is “did not show any binding”.

With `CC(C)N(CCCNC(=O)Nc1ccc(C(C)(C)C)cc1)C[C@H]1O[C@@H](n2ccc3c(N)ncnc32)[C@H](O)[C@@H]1O` [EPZ004777, reference compound], the “global H3K79 methylation level” value in experiment [7] is given as “decreased global level of H3K79 methylation”.

Take “biotinylated DOT1L 10-mer peptide: DOT1L 10-mer peptide with N-terminal biotin group (LPISIPLSTV-NH2; not fully specified (N-terminus); also: N-terminal biotin coupled to lysine and two β-alanine spacer, order not given here)”: the “binding to cellular CxxC-AF9 (pull-down)” value in experiment [8] was “recognizes and binds to the cellular CxxC-AF9 protein in a dose dependent manner”.

Values taken from patent US9862746B2, “Compositions and methods relating to hindering DOT1L recruitment by MLL-fusion proteins” (The Regents of the University of Michigan, priority 2013, dated 2018).
